Laboratory results taken from patent US20250325571A1, “TREATMENT OF BINGE EATING DISORDER USING PSYCHEDELICS” (TRYP Therapeutics Inc., priority 2022, published 2025).

Legend:
[1] = system: 2-deoxy-D-glucose-induced hyperphagia; conditions: rats; cited from earlier work
[2] = cited from earlier work
[3] = across species tested; cited from earlier work
[4] = rats, cited from earlier work
[5] = system: human subjects with a Binge eating disorder (BED); assay: Open-label clinical study of oral psilocybin with psychotherapy in BED: eating behavior, body and psychological indicators; format: in vivo; conditions: for BMI / Waist circumference / HADS Anxiety Score / HADS Depression Score / Acceptance and Action Questionnaire (AAQ-II) score / Patient Global Impression (PGI-I) score / Binge Eating Scale (BES) score: one subject; for Patient Global Impression (PGI-I) score: scale 1 (very much improved) to 7, baseline set at 4; for Binge Eating Scale (BES) score: BES ranges from 0 to 46
[6] = system: human subjects with a Binge eating disorder (BED); assay: Psychedelic experience questionnaires (CEQ, MEQ30) one day after dosing; conditions: one subject
[7] = system: human subjects with a Binge eating disorder (BED); assay: Safety evaluation in the clinical study (adverse events, vital signs); format: in vivo
Experimental: Subjects were instructed to consume a low-fat breakfast at least one hour before reporting to the dosing session, where a single 25 mg oral dose of psilocybin was to be administered (Usona Institute). On dosing day, vital signs, for example, heart rate and BP, were assessed prior to administration of psilocybin and at 30, 60, 90, 120, 180, 240, 300, and 360 minutes post-administration. 12-lead ECGs were performed in triplicate pre-dosing and 60, 120, and 360 minutes after capsule administration. C-SSRS responses were reported prior to and following dosing. […] ACT-based clinical formulation continues as the therapist listens to emergent narratives and notes instances of psychological flexibility and inflexibility, especially present moment awareness, avoidance, and values.
Session monitors were trained to provide support to subjects if they experience acute anxiety, agitation, paranoia, or panic. However, in the event of an AE, a physician was consulted. AEs include psychiatric emergency, hypertension, acute chest pain, and headache. An oral benzodiazepine, for example, lorazepam, was available for treatment of panic or anxiety. An oral antipsychotic, for example, risperidone, was available for treatment of psychosis or severe agitation. If a subject experienced hypertension, a BP of >200 mm Hg systolic or >110 mm Hg diastolic for more than 15 minutes from four consecutive readings, the subject was transferred to the emergency room whether or not they were symptomatic. Labetalol or similar drug was available for treatment of hypertension. If a subject developed new-onset chest pain, the subject was evaluated in-person by the study physician to determine whether the pain was cardiovascular or musculoskeletal, or reflects acute panic/anxiety. Vital signs and ECG were monitored and compared to baseline measurements for evidence of acute ischemia. […]
Vital signs, such as BP and heart rate, were recorded at the dosing session, the day following dosing, and at Weeks 6, 10, and 14 (4, 8, and 12 weeks after the dosing session). […]
Adverse events (AEs) were monitored throughout the study. […]

tissue phosphatases = conditions: in vitro studies; cited from earlier work
[8] = doses examined in clinical studies; cited from earlier work
[9] = day 0 (day of administration of psilocybin, 25 mg oral)
[10] = day 0, after dosing (25 mg oral)
[11] = day 27 after single 25 mg oral dose with psychotherapy
[12] = day −42 relative to dosing day (baseline, before psilocybin)

## Clc1cccc(N2CCNCC2)c1 [m-chlorophenylpiperazine]
[1]
  Effect on 2-deoxy-D-glucose-induced hyperphagia: inhibited

## CN(C)CCc1c[nH]c2cccc(O)c12 [psilocin]
[2]; after administration of the parent compound (oral psilocybin)
  Time until psilocin is detectable in plasma: ≤ 20 min
[2]; in vivo
  Half-life in blood: 2 to 3 h
[3]
  Brain regions with highest levels of psilocin: neocortex, hippocampus, and thalamus
[4]; post-administration of oral psilocybin
  Time to maximum plasma levels: approximately 90 minutes
[4]; psilocybin administered orally
  Fraction of total psilocin absorbed from the digestive tract: approximately 50%

## CN(C)CCc1c[nH]c2cccc(OP(=O)(O)O)c12 [psilocybin, 3-[2-(dimethylamino)ethyl]-1H-indol-4-yl]dihydrogen phosphate]
[5]; 3 subjects for whom data was available
  Persistence of decrease in FBE after administration: over 80 days
[5]; 4 of 5 subjects, four-week post-dosing measurement period
  Reduction of daily instances of feeling lost control over eating, 4 of 5 subjects: greater than 70%
[5]; 4 of 5 subjects, four-week post-dosing measurement period, FIG. 3A
  Reduction in daily binge eating episodes from baseline, 4 of 5 subjects: ≥ 75%
[5]; 5 subjects, four-week post-dosing measurement period, FIG. 3B
  Reduction of daily instances of feeling lost control over eating, average (Eating Questionnaire Q2): 81.6%
[5]; after administration of a single dose
  Duration of effects on BED symptom improvement: ≥ 80 days
[5]; all 4 subjects for whom data was available
  Persistence of decrease in FBE after administration: ≥ 50 days
[5]; all 5 subjects, four-week post-dosing measurement period
  Daily reduction in binge eating episodes from baseline, all subjects: at least 60%
[5]; average across 5 subjects, four-week post-dosing measurement period, single 25 mg oral dose
  Reduction of daily binge eating episodes from baseline, average (Eating Questionnaire Q1): 80.4%
[5]; [9]
  BMI: 43.5 kg/m^2
  Waist circumference: 105.9 cm
[5]; [10]
  HADS Anxiety Score: 6
  HADS Depression Score: 6
[5]; day 0, before dosing
  HADS Anxiety Score: 5
  HADS Depression Score: 5
[5]; day 13 after dosing
  Acceptance and Action Questionnaire (AAQ-II) score: 10
  HADS Anxiety Score: 4
  HADS Depression Score: 0
  Patient Global Impression (PGI-I) score: 1
[5]; day 27 after dosing
  Acceptance and Action Questionnaire (AAQ-II) score: 10
  HADS Anxiety Score: 2
  HADS Depression Score: 1
  Patient Global Impression (PGI-I) score: 1
[5]; [11]
  BMI: 42.5 kg/m^2
  Waist circumference: 104.4 cm
[5]; day 27 after single 25 mg oral dose
  Binge Eating Scale (BES) score: 5
[5]; day −42 (baseline)
  Acceptance and Action Questionnaire (AAQ-II) score: 13
  HADS Anxiety Score: 5
  HADS Depression Score: 5
  Binge Eating Scale (BES) score: 13
[5]; [12]
  BMI: 42.9 kg/m^2
  Waist circumference: 106.6 cm
[6]; CEQ ranges from 0.000 to 1.000
  Challenging Experience Questionnaire score: Death: 0
  Challenging Experience Questionnaire score: Fear: 0.16
  Challenging Experience Questionnaire score: Grief: 0
  Challenging Experience Questionnaire score: Insanity: 0
  Challenging Experience Questionnaire score: Isolation: 0
  Challenging Experience Questionnaire score: Paranoia: 0
  Challenging Experience Questionnaire score: Physical Distress: 0.24
  Challenging Experience Questionnaire score: Total Score: 0.06
[6]; MEQ30 ranges from 0% to 100%
  MEQ30 score: Ineffability: 80%
  MEQ30 score: Mystical: 45.33%
  MEQ30 score: Positive mood: 93.33%
  MEQ30 score: Total Score: 58.67%
  MEQ30 score: Transcendence of time and space: 46.67%
[2]; oral
  Bioavailability: ~50%
[7]; 5 subjects, four-week period following administration
  Drug-related adverse events: No drug-related adverse events were reported
[7]; one subject, 25 mg oral dose
  Changes in heart rate or blood pressure: No substantial changes were observed
[7]; one subject, during the administration or the integration sessions
  Adverse events: No adverse events were observed
Tissue phosphatases
  Most active metabolic organs for initial psilocybin metabolism: kidneys as being among the most active metabolic organs
[8]
  Tolerability: well tolerated
